Laboratory results: PubChem BioAssay (NCI)
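Cells were grown in 96-well plates and exposed to each compound for 48 hours at five concentrations; endpoints were interpolated linearly between bracketing concentrations, or set to the highest concentration if not reached. Definition used: TGI = concentration required for complete inhibition of growth.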

Assays:
Assay in all cases: NCI tumour cell line growth inhibition, 48 h
786-0 renal = test system: 786-0 renal
A498 renal = test system: A498 renal
A549 NSCLC = test system: A549 NSCLC
ACHN renal = test system: ACHN renal
CAKI-1 renal = test system: CAKI-1 renal
CCRF-CEM leukemia = test system: CCRF-CEM leukemia
COLO 205 colon = test system: COLO 205 colon
DLD-1 colon = test system: DLD-1 colon
DMS 114 small cell lung = test system: DMS 114 small cell lung
DMS 273 small cell lung = test system: DMS 273 small cell lung
EKVX NSCLC = test system: EKVX NSCLC
HCC-2998 colon = test system: HCC-2998 colon
HCT-116 colon = test system: HCT-116 colon
HCT-15 colon = test system: HCT-15 colon
HL-60(TB) leukemia = test system: HL-60(TB) leukemia
HOP-18 NSCLC = test system: HOP-18 NSCLC
HOP-62 NSCLC = test system: HOP-62 NSCLC
HOP-92 NSCLC = test system: HOP-92 NSCLC
HT29 colon = test system: HT29 colon
IGROV1 ovarian = test system: IGROV1 ovarian
K-562 leukemia = test system: K-562 leukemia
KM12 colon = test system: KM12 colon
KM20L2 colon = test system: KM20L2 colon
LOX IMVI melanoma = test system: LOX IMVI melanoma
LXFL 529 NSCLC = test system: LXFL 529 NSCLC
M14 melanoma = test system: M14 melanoma
M19-MEL melanoma = test system: M19-MEL melanoma
MALME-3M melanoma = test system: MALME-3M melanoma
MOLT-4 leukemia = test system: MOLT-4 leukemia
NCI-H226 lung = test system: NCI-H226 lung
NCI-H23 lung = test system: NCI-H23 lung
NCI-H460 lung = test system: NCI-H460 lung
NCI-H522 lung = test system: NCI-H522 lung
OVCAR-3 ovarian = test system: OVCAR-3 ovarian
OVCAR-4 ovarian = test system: OVCAR-4 ovarian
OVCAR-5 ovarian = test system: OVCAR-5 ovarian
OVCAR-8 ovarian = test system: OVCAR-8 ovarian
RPMI-8226 leukemia = test system: RPMI-8226 leukemia
RXF-631 renal = test system: RXF-631 renal
SF-268 CNS = test system: SF-268 CNS
SF-295 CNS = test system: SF-295 CNS
SF-539 CNS = test system: SF-539 CNS
SK-MEL-2 melanoma = test system: SK-MEL-2 melanoma
SK-MEL-28 melanoma = test system: SK-MEL-28 melanoma
SK-OV-3 ovarian = test system: SK-OV-3 ovarian
SN12C renal = test system: SN12C renal
SNB-19 CNS = test system: SNB-19 CNS
SNB-78 CNS = test system: SNB-78 CNS
SW-620 colon = test system: SW-620 colon
TK-10 renal = test system: TK-10 renal
U251 CNS = test system: U251 CNS
UACC-257 melanoma = test system: UACC-257 melanoma
UACC-62 melanoma = test system: UACC-62 melanoma
UO-31 renal = test system: UO-31 renal
XF 498 CNS = test system: XF 498 CNS
SNB-75 CNS = test system: SNB-75 CNS
SR leukemia = test system: SR leukemia
SK-MEL-5 melanoma = test system: SK-MEL-5 melanoma

Measured: TGI

COC(=N)c1csc(C2OC(CO)C(O)C2O)n1 (stereo not given)
not listed: SNB-75 CNS | SR leukemia | SK-MEL-5 melanoma
> 100 µM: all other assays above

CCCCCCCCc1cc2c(O)c(c1)Cc1cc(CCCCCCCC)cc(c1O)Cc1cc(CCCCCCCC)cc(c1O)Cc1cc(CCCCCCCC)cc(c1O)Cc1cc(CCCCCCCC)cc(c1O)Cc1cc(CCCCCCCC)cc(c1O)C2
not listed: DMS 273 small cell lung | EKVX NSCLC | HOP-62 NSCLC | M14 melanoma | M19-MEL melanoma | NCI-H226 lung | NCI-H522 lung | OVCAR-3 ovarian | OVCAR-4 ovarian | RPMI-8226 leukemia | SK-MEL-5 melanoma
> 100 µM: all other assays above

CC[C@@H]1NC(C(=O)OC)Cc2c1[nH]c1ccccc21 (stereo not given in full)
not listed: HOP-62 NSCLC | NCI-H522 lung | RPMI-8226 leukemia | SF-268 CNS | XF 498 CNS
> 100 µM: all other assays above
